Our source for the MIC and FoldChange values is patent US20260248950A1, “ANTIMICROBIAL PEPTIDE DELIVERY SYSTEM AND MANUFACTURING METHOD BASED ON GOLD NANOPARTICLE-APTAMER CONJUGATE” (NES BIOTECHNOLOGY CO., LTD., priority 2022, published 2026).

One data set has as its system Staphylococcus aureus. Put plainly: microbe, parasite or virus in culture. It counts as cell-based. As for the experimental part: (§1) An experiment was conducted to determine the minimum inhibitory concentration (MIC) for multi-resistant strains in an antimicrobial activity test. Pseudomonas aeruginosa, Acinetobacter baumannii, and Staphylococcus aureus were cultured in LB medium at 1×10^3 colony-forming units (CFU)/ml. Each strain was treated with WLBU2 peptide and antibiotics, such as ampicillin and erythromycin, at concentrations of 2, 4, 8, 16, 32, 64, 128, 256, and 512 μM, respectively, and then incubated at 37° C. for 18 to 24 hours.
(§2) The minimum inhibitory concentration (MIC) was determined as the […].

A further data set relates to Acinetobacter baumannii. Put plainly: microbe, parasite or virus in culture. It counts as cell-based. How it is done:
as §1, §2

For the next data set, the system named is Pseudomonas aeruginosa. The data set can be described thus: microbe, parasite or virus in culture. It counts as cell-based. As for the experimental part:
as §1, §2

The next data set deals with WLBU2. Put plainly: SELEX aptamer selection, sequencing fold change of samples binding to WLBU2 vs control. To be noted: samples binding to WLBU2 compared to the control group; SELEX repeated 11 times. How it is done:
Aptamers specific to the antimicrobial peptide WLBU2 were developed using the SELEX (Systematic Evolution of Ligands by Exponential Enrichment) method. The SELEX process was repeated a total of 11 times, and the optimal aptamers with high binding affinity to WLBU2 were selected. The aptamer selection process was conducted according to the procedure illustrated in FIG. 1.
Among all the sequences confirmed through sequencing, four representative sequences showing a fold change greater than 2-fold in the samples binding to WLBU2 compared to the control group were developed.

Setting [1] is: Pseudomonas aeruginosa, LB medium, 1×10^3 CFU/ml, 37° C., 18 to 24 hours.

In brackets after ≈: the same amount, converted by molar mass. Read-outs that look alike come from different tables or passages of the source. Peptide text beside a SMILES is read from it. {SH} = thiol modification, used to bind gold nanoparticles

On to `CC(C)[C@H](NC(=O)[C@H](Cc1c[nH]c2ccccc12)NC(=O)[C@H](CCCNC(=N)N)NC(=O)[C@H](CCCNC(=N)N)NC(=O)[C@@H](NC(=O)[C@@H](NC(=O)[C@H](CCCNC(=N)N)NC(=O)[C@@H](NC(=O)[C@@H](NC(=O)[C@H](CCCNC(=N)N)NC(=O)[C@H](CCCNC(=N)N)NC(=O)[C@@H](NC(=O)[C@H](Cc1c[nH]c2ccccc12)NC(=O)[C@H](CCCNC(=N)N)NC(=O)[C@H](CCCNC(=N)N)NC(=O)[C@@H](NC(=O)[C@H](CCCNC(=N)N)NC(=O)[C@H](CCCNC(=N)N)NC(=O)[C@@H](NC(=O)[C@H](Cc1c[nH]c2ccccc12)NC(=O)[C@H](CCCNC(=N)N)NC(=O)[C@@H](N)CCCNC(=N)N)C(C)C)C(C)C)C(C)C)C(C)C)C(C)C)C(C)C)C(C)C)C(=O)N[C@@H](CCCNC(=N)N)C(=O)N[C@@H](CCCNC(=N)N)C(=O)O` [WLBU2] (H-RRWVRRVRRWVRRVVRVVRRWVRR-OH; N-terminus and C-terminus assumed), for which the MIC stood at 4 µM (≈ 13.6 µg/mL) in the data set on Staphylococcus aureus (read-out: MIC), 8 µM (≈ 27.2 µg/mL) with Acinetobacter baumannii (read-out: MIC) and 4 µM (≈ 13.6 µg/mL) against Pseudomonas aeruginosa. Take `CC[C@H]1OC(=O)[C@H](C)[C@@H](O[C@H]2C[C@@](C)(OC)[C@@H](O)[C@H](C)O2)[C@H](C)[C@@H](O[C@@H]2O[C@H](C)C[C@H](N(C)C)[C@H]2O)[C@](C)(O)C[C@@H](C)C(=O)[C@H](C)[C@@H](O)[C@]1(C)O` [Erythromycin, erythromycin]: the MIC with Staphylococcus aureus (Staphylococcus aureus, LB medium, 1×10^3 CFU/ml, 37° C., 18 to 24 hours, read-out: MIC) is more than 128 µM; in the data set with Acinetobacter baumannii (Acinetobacter baumannii, LB medium, 1×10^3 CFU/ml, 37° C., 18 to 24 hours, read-out: MIC) it was more than 256 µM; against Pseudomonas aeruginosa (setting [1]), more than 64 µM. In the case of `CC1(C)S[C@@H]2[C@H](NC(=O)[C@H](N)c3ccccc3)C(=O)N2[C@H]1C(=O)O` [Ampicillin, ampicillin], the results for the MIC in the data set with Staphylococcus aureus (Staphylococcus aureus), in the data set with Acinetobacter baumannii (Acinetobacter baumannii) and against Pseudomonas aeruginosa (setting [1]) were more than 256 µM, more than 256 µM and more than 64 µM, respectively.

B1: WLBU2-R: SELEX aptamer specific to WLBU2, SEQ No. 1 in Table 2; thiol-modified at 3′-terminal for binding to gold nanoparticles (nucleic acid)
DNA: AAAACGACGGCCAGTGCGCGCGCTTTGCTTGTGTGAGCATTGCTTTTGCATTATTGGTTTGGTTGGTGTGGTTCGTGCGCGCCATGGTCATAGCCTGT
modifications: DNA, 3' {SH}, backbone and methylation of C not given here
In turn, B1 had a FoldChange in the data set on WLBU2 of 2.2.

B2: WLBU2-R-3: SELEX aptamer specific to WLBU2, SEQ No. 4 (nucleic acid)
DNA: AAAACGACGGCCAGTGCGCGCGCTTTGCTTGTGTGAGCATTGCTTTTGCATTATTGGTTTGGTTGGTGTGGTTCGTGCGCGCCATGGTCATAGCTGT
modifications: listed as DNA, chemistry not fully specified
With B2, the FoldChange in the data set on WLBU2 is on record as 2.7.

B3: WLBU2-R-1: SELEX aptamer specific to WLBU2, SEQ No. 2 (nucleic acid)
DNA: AAAACGACGGCCAGTCTTTCGCGGGGTCTGGGGTTGGGGTTGTGGGTTAATTGCACTTCGAAATGCATGGTCATAGCTGT
modifications: listed as DNA, chemistry not fully specified
In the data set with WLBU2, B3 displayed a FoldChange of 3.28.

B4: WLBU2-R-2: SELEX aptamer specific to WLBU2, SEQ No. 3 (nucleic acid)
DNA: AAAACGACGGCCAGTGGCTGGTAGGTTTGGGTGGTTTGGTTGGGATTCGGTTGGTTGGTACCAGCCATGGTCATAGCTGT
modifications: listed as DNA, chemistry not fully specified
B4: the FoldChange with WLBU2 is 3.67.
